The values that follow come from ChEMBL document CHEMBL4000182, “Structure-activity relationships of benzothiazole GPR35 antagonists” (Bioorg Med Chem Lett, 2017).

The first experiment deals with T1, G-protein coupled receptor 35 (Homo sapiens, UniProt Q9HC97). The experiment can be described thus: Antagonist activity at HA tagged GPR35a (unknown origin) expressed in human U2OS cells co-expressing GFP-fused beta arrestin-2 assessed as inhibition of zaprinast induced effect. In kind it is cell-based.
T1 sequence (Q9HC97 whole entry, the tested form may be a part): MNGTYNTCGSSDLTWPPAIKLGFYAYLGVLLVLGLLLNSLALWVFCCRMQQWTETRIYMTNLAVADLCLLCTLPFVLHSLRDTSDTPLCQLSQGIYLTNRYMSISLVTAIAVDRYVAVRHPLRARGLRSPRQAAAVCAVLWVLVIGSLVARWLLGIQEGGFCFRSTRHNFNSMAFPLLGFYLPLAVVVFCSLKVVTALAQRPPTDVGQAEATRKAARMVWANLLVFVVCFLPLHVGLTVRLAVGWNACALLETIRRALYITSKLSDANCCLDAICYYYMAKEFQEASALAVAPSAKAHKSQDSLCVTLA
By IC50 is commonly meant the point on the concentration scale where inhibition reaches its midpoint. `O=C(Nc1ccc2nc(SCc3ccc(Cl)cc3)sc2c1)c1ccccc1C(=O)N1CCOCC1`: the IC50 was 4.56 µM.

As for `O=C(Nc1ccc2nc(SCc3ccccc3)sc2c1)c1ccccc1C(=O)N1CCOCC1`, the IC50 came to 7.23 µM. In the case of `O=C(Nc1ccc2nc([S+]([O-])Cc3ccc(Cl)cc3)sc2c1)c1ccccc1C(=O)N1CCOCC1` (stereo not drawn), the IC50 came to 13 µM. The same measure, in the same setting: the same measure for `O=C(Nc1ccc2nc(SCc3ccc(Cl)cc3)sc2c1)c1ccccc1C(=O)N1CCCCC1`: > 30 µM; for `O=C(Nc1ccc2nc([S@+]([O-])Cc3ccc(Cl)cc3)sc2c1)c1ccccc1C(=O)N1CCOCC1`: > 30 µM; for `CC(Sc1nc2ccc(NC(=O)c3ccccc3C(=O)N3CCOCC3)cc2s1)c1ccc(Cl)cc1` (stereo not drawn): 17 µM.

As to `O=C(Nc1ccc2nc(S(=O)(=O)Cc3ccc(Cl)cc3)sc2c1)c1ccccc1C(=O)N1CCOCC1`, the IC50 amounted to 5.24 µM. The same measure, in the same setting: the same measure for `O=C(Nc1ccc2nc(SCc3ccncc3)sc2c1)c1ccccc1C(=O)N1CCOCC1`: > 30 µM; for `O=C(Nc1ccc2nc(SCc3ccc(Cl)cc3)sc2c1)c1ccccc1C(=O)N1CCCC1`: > 30 µM. In the case of `O=C(Nc1ccc2nc([S@@+]([O-])Cc3ccc(Cl)cc3)sc2c1)c1ccccc1C(=O)N1CCOCC1`, the IC50 is > 30 µM. For the molecule `O=C(Nc1ccc2nc(SCc3ccc(Cl)cc3)[nH]c2c1)c1ccccc1C(=O)N1CCOCC1`, the IC50 was > 30 µM.

The next experiment addresses T1, G-protein coupled receptor 35. In words: Antagonist activity at GPR35 (unknown origin).
In turn, `O=C(O)c1cc(=O)c2ccccc2[nH]1` [TRANSTORINE] had an IC50 of 39 µM.

For the next experiment the target is unchanged. In words: Antagonist activity at human N-terminal HA-tagged GPR35a expressed in human U2OS cells co-expressing GFP-fused beta arrestin-2 assessed as inhibition of agonist induced redistribution of GFP-fused beta arrestin-2 preincubated for 15 mins followed by agonist addition by fluorescence assay. It counts as cell-based.
One may read the EC50 as the concentration at which the effect is half-maximal. For the molecule `O=C(Nc1ccc2nc(SCc3ccc(Cl)cc3)sc2c1)c1ccccc1C(=O)N1CCOCC1`, the EC50 is 0.55 µM.
